A word on the inhibition: it is the relative decrease from the control value, in per cent. Higher therefore signals a strong effect.

This is an account of results in patent US10280401B2, “Method of measuring inhibition of phosphatidylcholine export transport and/or formation activity” (Biotranex, LLC, priority 2015, dated 2019).

Each structure is given as a SMILES string.

In test [1] the test system is PC export transport activity. In words: Inhibition of PC export transport activity in human hepatocytes (d9-choline, taurocholic acid, LC/MS/MS). It is filed as cell-based. Conditions: Hepatocyte, 100 μg/mL d9-choline, 5 mM taurocholic acid, 2 hours; for inhibition at 1 µM: drug 1 μM; for inhibition at 10 µM: drug 10 μM; for inhibition at 100 µM: drug 100 μM. As for the experimental part: (§1) The effect of a test agent in terms of percentage (%) of inhibition on PC export transport and/or formation activity is determined by the following equation: […]
(§2) Fifty mL InVitroGRO HT medium was pre-warmed in a 37° C. water bath. A vial of hepatocyte was removed from a liquid N2 tank and quickly warmed in a 37° C. water bath by holding in hand with slow rotation. As soon as the edge of the frozen cells was separated from the wall of the vial, the frozen cells were poured into the pre-warmed HT medium and the remaining cells in the vial were collected using pipette. The tube was centrifuged at 50 g, 25° C. for 5 minutes, the supernatant was removed and the cell pellet was re-suspended in 8 mL of pre-warmed Williams E buffer, the cell numbers were counted in a hemocytometer. […] The cells were counted in 0.4% Trypan blue (80 μL Williams E buffer+10 μL Trypan blue stock+10 μL cells). The hepatocyte concentration was adjusted with Williams E buffer to meet the objectives of various experiments.
(§3) LC/MS/MS assays: Liquid chromatography was carried out using a Shimadzu (Columbia, Md.) HPLC system consisting of an SCL-10 Avp system controller, two LC-10 ADvp pumps, a CTC HTC PAL autosampler, a Shimadzu SPD-10 ADvp UV detector and an automated switching valve. The switching valve was used to divert the column effluent to either waste or to the MS instrument. The Shimadzu HPLC system was used for sample injection and analyte separation. Each sample was loaded onto a reverse phase column, Phenomenex (Torrance, Calif.) Luna C85μ2 mm×50 mm. The column chamber's temperature was ambient. The initial HPLC mobile phase conditions used for separation and elution of analytes comprised 50% acetonitrile in water containing 0.1% formic acid (A) and isopropanol:acetonitrile (9:1) (B). The flow rate was 0.5 mL/min. The amount of B in the mobile phase was ramped linearly up to 62% over a 0.5-minute period followed by a slow increase to 63% B in 4.5 minutes, then a rapid increase to 95% B in 0.1 min. After holding at 95% B for 2.3 minutes, the mobile phase was reset to the initial conditions in 0.1 minute. The analytical column was equilibrated with the starting mobile phase for 2.5 minutes. The total run time for each sample analysis was approximately 10 minutes.
(§4) The HPLC elute was injected into an AB Sciex AP14000 LC/MS/MS system (Framingham, Mass.) equipped with a Turbo IonSpray source set with a desolvation temperature of 450° C. Nitrogen was used as curtain gas, nebulizer gas, heater gas, and collision gas. Data for PC was acquired in the positive ion mode using multiple reaction monitoring methods (MRM). The ion transitions of the MRM method for specific detection of PC species were developed in standard fashion. Ionspray voltage was set at 4000 V and the collision gas (CAD) set at 6. Declustering potential and collision energy was set at 50 and 42 respectively for PC. The PC species were monitored using the following transitions: 768→193, 770→193, 796→193, 798→193, 792→193, 794→193, 816→193. (S)-(+)-Methyl 2-(4,5,6,7-tetrahydrothieno[3,2-c]pyridin-5-yl)-2-(2-chlorophenyl)acetate hydrogensulfate was used as an internal standard with the following ion transition: 322.2→152.1. Propane-1-sulfonic acid {3-[5-(4-chlorophenyl)-1H-pyrrolo[2,3-b]pyridine-3-carbonyl]-2,4difluoro-phenyl}-amide was also used as an internal standard with the following ion transition: 490.1→383.1.
(§5) Data analysis: Extracellular concentrations of PC were determined by LC/MS/MS MRM analysis of the 4000 RPM supernatant fractions post-incubation. Cellular concentrations of PC were determined by LC/MS/MS MRM of the extracts of hepatocytes post incubation. PC export transport and/or formation activity and test agent percent inhibition were calculated using the following equations: […]

The test system of test [2] is PC export transport activity. In words: Inhibition of PC export transport activity in rat hepatocytes (d9-choline, taurocholic acid, LC/MS/MS). To be noted: Hepatocyte, 100 μg/mL d9-choline, 5 mM taurocholic acid, 2 hours; for inhibition at 1 µM: drug 1 μM; for inhibition at 10 µM: drug 10 μM; for inhibition at 100 µM: drug 100 μM. It is filed as cell-based. As for the experimental part:
as §1, §2, §3, §4, §5

Turning to `O=C(O)CCCC[C@@H]1SC[C@@H]2NC(=O)N[C@@H]21` [Biotin, biotin], in test [1], the inhibition at 1 µM was no more than 30%, the inhibition at 10 µM was no more than 30% and the inhibition at 100 µM is no more than 30%. Further, in test [2], the inhibition at 1 µM is no more than 30%, the inhibition at 10 µM was no more than 30% and the inhibition at 100 µM was no more than 30%.
In the case of `Clc1ccccc1C(c1ccccc1)(c1ccccc1)n1ccnc1` [Clotrimazole, clotrimazole], in test [2], the inhibition at 1 µM was no more than 30%, the inhibition at 10 µM is no more than 30% and the inhibition at 100 µM is no less than 70%.
In test [1], `CN(C)CCCN1c2ccccc2Sc2ccc(Cl)cc21` [Chlorpromazine, chlorpromazine] came in with an inhibition at 1 µM of no more than 30%, an inhibition at 10 µM of 30 to 70% and an inhibition at 100 µM of no less than 70%. In test [2], this molecule displayed an inhibition at 1 µM of 30 to 70%, an inhibition at 10 µM of no less than 70% and an inhibition at 100 µM of no less than 70%.
In test [2], `CC1=C(CC(=O)O)c2cc(F)ccc2/C1=C\c1ccc([S+](C)[O-])cc1` (stereo not drawn) [Sulindac, sulindac] yielded an inhibition at 1 µM of no more than 30%, an inhibition at 10 µM of 30 to 70% and an inhibition at 100 µM of no less than 70%.
For `Cc1c(C)c2c(c(C)c1O)CCC(C)(COc1ccc(CC3SC(=O)NC3=O)cc1)O2` (stereo not drawn) [Troglitazone, troglitazone], in test [1], the inhibition at 1 µM was no more than 30%, the inhibition at 10 µM fell in the range of 30 to 70% and the inhibition at 100 µM was no less than 70%.
In test [2], `COC1=CC(=O)C[C@@H](C)[C@]12Oc1c(Cl)c(OC)cc(OC)c1C2=O` [Griseofulvin, griseofulvin] had an inhibition at 1 µM of no more than 30%, an inhibition at 10 µM of 30 to 70% and an inhibition at 100 µM of no less than 70%.
Turning to `CC(=O)N1CCN(c2ccc(OCC3COC(Cn4ccnc4)(c4ccc(Cl)cc4Cl)O3)cc2)CC1` (stereo not drawn) [Ketoconazole, ketoconazole], in test [1], the inhibition at 1 µM is no more than 30%, the inhibition at 10 µM was in the range of 30 to 70% and the inhibition at 100 µM is no less than 70%. In test [2], the inhibition at 1 µM lay in the range of 30 to 70%, the inhibition at 10 µM was in the range of 30 to 70% and the inhibition at 100 µM was no less than 70%.
`CC(C)(S)[C@@H](N)C(=O)O` [Penicillamine, penicillamine]: in test [1], the inhibition at 1 µM is no more than 30%, the inhibition at 10 µM is no more than 30% and the inhibition at 100 µM was no more than 30%.
